In the supplement of paper PMC10307832:

How the values were obtained:
Assay in all cases: relative viability (nuclei count vs DMSO), 5 days (fraction); higher = more cells survive
LU99A = tested on: LU99A
In short: (§1)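 Relative viability divides the nuclei count in treated wells by that in vehicle wells. Lung cancer cell lines were seeded in 1536-well plates, dosed by pin tool the next day, and fixed and stained after 5 days in one step with final 0.05% Triton X-100, 1% formaldehyde and 1 ug/ml Hoechst. Dosing was a single drug or a fixed anchor-drug dose plus five library-drug doses (not always all listed) in √10 steps, and values are medians of duplicate plates imaged at 4×.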

HCC-15 = tested on: HCC-15
In short: as §1

NCI-H522 = tested on: NCI-H522
In short: as §1

PC-14 = tested on: PC-14
In short: as §1

NCI-H838 = tested on: NCI-H838
In short: as §1

NCI-H2009 = tested on: NCI-H2009
In short: as §1

NCI-H2126 = tested on: NCI-H2126
In short: as §1

NCI-H358 = tested on: NCI-H358
In short: as §1

NCI-H1651 = tested on: NCI-H1651
In short: as §1

NCI-H2342 = tested on: NCI-H2342
In short: as §1

HARA = tested on: HARA
In short: as §1

SW 1573 = tested on: SW 1573
In short: as §1

NCI-H650 = tested on: NCI-H650
In short: as §1

UMC-11 = tested on: UMC-11
In short: as §1

NCI-H2347 = tested on: NCI-H2347
In short: as §1

HCC-78 = tested on: HCC-78
In short: as §1

EPLC-272H = tested on: EPLC-272H
In short: as §1

LC-2-ad = tested on: LC-2-ad
In short: as §1

NCI-H1915 = tested on: NCI-H1915
In short: as §1

NCI-H1993 = tested on: NCI-H1993
In short: as §1

NCI-H2085 = tested on: NCI-H2085
In short: as §1

NCI-H460 = tested on: NCI-H460
In short: as §1

ABC-1 = tested on: ABC-1
In short: as §1

COR-L23 = tested on: COR-L23
In short: as §1

Clc1ccc(Nc2nnc(Cc3ccncc3)c3ccccc23)cc1 [Vatalanib] + Cc1cc(Nc2cc(N3CCN(C)CC3)nc(Sc3ccc(NC(=O)C4CC4)cc3)n2)n[nH]1 [Tozasertib] (partner 0.1 µM)
relative viability (LU99A; first compound 0.04 µM): 0.282 | relative viability (LU99A; first compound 0.1265 µM): 0.289 | relative viability (LU99A; first compound 0.4 µM): 0.305 | relative viability (LU99A; first compound 1.265 µM): 0.266 | relative viability (LU99A; first compound 4 µM): 0.286 | relative viability (HCC-15; first compound 0.04 µM): 0.419 | relative viability (HCC-15; first compound 0.1265 µM): 0.465 | relative viability (HCC-15; first compound 0.4 µM): 0.478 | relative viability (HCC-15; first compound 1.265 µM): 0.446 | relative viability (HCC-15; first compound 4 µM): 0.426 | relative viability (NCI-H522; first compound 0.04 µM): 0.565 | relative viability (NCI-H522; first compound 0.1265 µM): 0.508 | relative viability (NCI-H522; first compound 0.4 µM): 0.636 | relative viability (NCI-H522; first compound 1.265 µM): 0.57 | relative viability (NCI-H522; first compound 4 µM): 0.477 | relative viability (PC-14; first compound 0.04 µM): 0.625 | relative viability (PC-14; first compound 0.1265 µM): 0.523 | relative viability (PC-14; first compound 1.265 µM): 0.51 | relative viability (PC-14; first compound 4 µM): 0.592 | relative viability (NCI-H838; first compound 0.04 µM): 0.249 | relative viability (NCI-H838; first compound 0.1265 µM): 0.28 | relative viability (NCI-H838; first compound 0.4 µM): 0.302 | relative viability (NCI-H838; first compound 1.265 µM): 0.228 | relative viability (NCI-H838; first compound 4 µM): 0.295 | relative viability (NCI-H2009; first compound 0.04 µM): 0.752 | relative viability (NCI-H2009; first compound 0.1265 µM): 0.678 | relative viability (NCI-H2009; first compound 0.4 µM): 0.864 | relative viability (NCI-H2009; first compound 1.265 µM): 0.739 | relative viability (NCI-H2009; first compound 4 µM): 0.682 | relative viability (NCI-H2126; first compound 0.04 µM): 0.808 | relative viability (NCI-H2126; first compound 0.1265 µM): 0.769 | relative viability (NCI-H2126; first compound 0.4 µM): 0.829 | relative viability (NCI-H2126; first compound 1.265 µM): 0.805 | relative viability (NCI-H2126; first compound 4 µM): 0.82 | relative viability (NCI-H358; first compound 0.04 µM): 0.0969 | relative viability (NCI-H358; first compound 0.1265 µM): 0.0902 | relative viability (NCI-H358; first compound 0.4 µM): 0.08 | relative viability (NCI-H358; first compound 1.265 µM): 0.108 | relative viability (NCI-H358; first compound 4 µM): 0.0997 | relative viability (NCI-H1651; first compound 0.04 µM): 0.845 | relative viability (NCI-H1651; first compound 0.1265 µM): 0.668 | relative viability (NCI-H1651; first compound 0.4 µM): 0.701 | relative viability (NCI-H1651; first compound 1.265 µM): 0.667 | relative viability (NCI-H1651; first compound 4 µM): 0.629 | relative viability (NCI-H2342; first compound 0.04 µM): 0.618 | relative viability (NCI-H2342; first compound 0.1265 µM): 0.532 | relative viability (NCI-H2342; first compound 0.4 µM): 0.492 | relative viability (NCI-H2342; first compound 1.265 µM): 0.465 | relative viability (NCI-H2342; first compound 4 µM): 0.492 | relative viability (HARA; first compound 0.04 µM): 0.0991 | relative viability (HARA; first compound 0.1265 µM): 0.11 | relative viability (HARA; first compound 0.4 µM): 0.108 | relative viability (HARA; first compound 1.265 µM): 0.0945 | relative viability (HARA; first compound 4 µM): 0.112 | relative viability (SW 1573; first compound 0.04 µM): 0.145 | relative viability (SW 1573; first compound 0.1265 µM): 0.165 | relative viability (SW 1573; first compound 0.4 µM): 0.215 | relative viability (SW 1573; first compound 1.265 µM): 0.257 | relative viability (SW 1573; first compound 4 µM): 0.153 | relative viability (NCI-H650; first compound 0.04 µM): 0.81 | relative viability (NCI-H650; first compound 0.1265 µM): 0.655 | relative viability (NCI-H650; first compound 1.265 µM): 0.718 | relative viability (NCI-H650; first compound 4 µM): 0.631 | relative viability (UMC-11; first compound 0.04 µM): 0.198 | relative viability (UMC-11; first compound 0.1265 µM): 0.206 | relative viability (UMC-11; first compound 0.4 µM): 0.147 | relative viability (UMC-11; first compound 1.265 µM): 0.214 | relative viability (UMC-11; first compound 4 µM): 0.205 | relative viability (NCI-H2347; first compound 0.04 µM): 0.462 | relative viability (NCI-H2347; first compound 0.1265 µM): 0.579 | relative viability (NCI-H2347; first compound 0.4 µM): 0.678 | relative viability (NCI-H2347; first compound 1.265 µM): 0.61 | relative viability (NCI-H2347; first compound 4 µM): 0.55 | relative viability (HCC-78; first compound 0.04 µM): 0.447 | relative viability (HCC-78; first compound 0.1265 µM): 0.494 | relative viability (HCC-78; first compound 0.4 µM): 0.559 | relative viability (HCC-78; first compound 1.265 µM): 0.436 | relative viability (HCC-78; first compound 4 µM): 0.493 | relative viability (EPLC-272H; first compound 0.04 µM): 0.319 | relative viability (EPLC-272H; first compound 0.1265 µM): 0.271 | relative viability (EPLC-272H; first compound 0.4 µM): 0.411 | relative viability (EPLC-272H; first compound 1.265 µM): 0.324 | relative viability (EPLC-272H; first compound 4 µM): 0.249 | relative viability (LC-2-ad; first compound 0.04 µM): 0.53 | relative viability (LC-2-ad; first compound 0.1265 µM): 0.385 | relative viability (LC-2-ad; first compound 1.265 µM): 0.469 | relative viability (LC-2-ad; first compound 4 µM): 0.425 | relative viability (NCI-H1915; first compound 0.04 µM): 0.457 | relative viability (NCI-H1915; first compound 0.1265 µM): 0.413 | relative viability (NCI-H1915; first compound 0.4 µM): 0.468 | relative viability (NCI-H1915; first compound 1.265 µM): 0.385 | relative viability (NCI-H1915; first compound 4 µM): 0.442 | relative viability (NCI-H1993; first compound 0.04 µM): 0.563 | relative viability (NCI-H1993; first compound 0.1265 µM): 0.566 | relative viability (NCI-H1993; first compound 0.4 µM): 0.608 | relative viability (NCI-H1993; first compound 1.265 µM): 0.542 | relative viability (NCI-H1993; first compound 4 µM): 0.592 | relative viability (NCI-H2085; first compound 0.04 µM): 0.796 | relative viability (NCI-H2085; first compound 0.1265 µM): 0.831 | relative viability (NCI-H2085; first compound 0.4 µM): 0.829 | relative viability (NCI-H2085; first compound 1.265 µM): 0.744 | relative viability (NCI-H2085; first compound 4 µM): 0.637 | relative viability (NCI-H460; first compound 0.04 µM): 0.656 | relative viability (NCI-H460; first compound 0.1265 µM): 0.299 | relative viability (NCI-H460; first compound 1.265 µM): 0.296 | relative viability (NCI-H460; first compound 4 µM): 0.397 | relative viability (ABC-1; first compound 0.04 µM): 0.184 | relative viability (ABC-1; first compound 0.1265 µM): 0.166 | relative viability (ABC-1; first compound 1.265 µM): 0.177 | relative viability (ABC-1; first compound 4 µM): 0.207 | relative viability (COR-L23; first compound 0.04 µM): 0.232 | relative viability (COR-L23; first compound 0.1265 µM): 0.194 | relative viability (COR-L23; first compound 0.4 µM): 0.206 | relative viability (COR-L23; first compound 1.265 µM): 0.168 | relative viability (COR-L23; first compound 4 µM): 0.173
